Results on five compounds are retold here after paper PMC2586422 (Bioorganic & medicinal chemistry, 2008).

The subject of one experiment is HIV-1 RT. The conditions noted are these: cited from earlier work.
In the next experiment the test system is MCF-7, SF-268, NCI-H460. As to the kind of experiment: Human cell growth inhibition, three cell lines together. The conditions noted are these: read-out: IC50 averaged over the three cell lines investigated. In kind it is cell-based.
The target of experiment [1] is T1, Human FPPS (farnesyl diphosphate synthase) (Homo sapiens, UniProt P14324).
T1 sequence (P14324 1-419): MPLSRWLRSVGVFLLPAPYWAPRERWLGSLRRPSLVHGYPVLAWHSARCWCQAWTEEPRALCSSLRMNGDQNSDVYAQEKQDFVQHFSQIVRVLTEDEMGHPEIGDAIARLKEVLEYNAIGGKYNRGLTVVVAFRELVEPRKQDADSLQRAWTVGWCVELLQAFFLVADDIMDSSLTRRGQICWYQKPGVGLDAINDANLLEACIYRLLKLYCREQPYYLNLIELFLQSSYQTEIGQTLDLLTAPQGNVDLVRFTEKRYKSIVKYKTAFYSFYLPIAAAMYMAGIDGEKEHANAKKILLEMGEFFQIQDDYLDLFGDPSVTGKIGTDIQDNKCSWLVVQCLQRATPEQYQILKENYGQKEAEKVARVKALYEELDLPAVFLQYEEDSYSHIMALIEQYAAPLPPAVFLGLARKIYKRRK
As to the kind of experiment: FPPS inhibition. In kind it is biochemical.

What is called IC50 is the point on the concentration scale where inhibition reaches its midpoint. On to `O=P(O)(O)C(Nc1cccc(-c2ccccc2)c1)P(=O)(O)O` [Compound 3], for which, in the experiment with HIV-1 RT (previous work ref 11), the “activity in inhibiting NRTI excision (in words)” value was “some activity”. The IC50 in the experiment on MCF-7, SF-268, NCI-H460 is around 229 µM.
Regarding `NCCC(O)(P(=O)(O)O)P(=O)(O)O` [Compound 4, pamidronate], the “inhibition of the phosphorolytic activity of RT (in words)” value in the experiment on HIV-1 RT is “competitively inhibited”.
Compound `O=P(O)(O)C(O)(Cc1ccc(Cl)c(Cl)c1)P(=O)(O)O` [Compound 5] registered an IC50 in experiment [1] of 8.5 µM.
In the case of `O=P(O)(O)C(O)(Cn1ccnc1)P(=O)(O)O` [Compound 36, zoledronate], the IC50 in the experiment on MCF-7, SF-268, NCI-H460 is around 15 µM.
Same read-out and setting: under `O=P(O)(O)C(O)(Cc1cnc2ccccn12)P(=O)(O)O` [Compound 44, minodronate] stands around 5 µM.
